Reference: patent US5147876A, “2,6-di,2,4,6-, 2,5,6-tri and 2,4,5,6-tetra-substituted pyrimidines, their pharmaceutically acceptable salts, pharmaceutical compositions containing same and their use in the treatment of neurological diseases” (Mitsui Petrochemical Industries, Ltd., priority 1988, dated 1992)
Counter-ions that a name gives are not always drawn.

How the values were obtained:
[1] = test system: neuro-2a (mouse neuroblastoma cells); experiment: Action on neuro-2a: proportion of cells containing outgrown neurites; assay type: cell-based; conditions: mean ± S.D.
Method: (§1) The effects of the compounds of this invention on neuroblastoma cells were examined by the following method.
(§2) Mouse neuro 2a cells in the logarithmic growth period in the Dulbecco's modified Eagle's medium DMEM, containing 100 units/ml of penicillin G sodium and 100 micrograms/ml of streptomycin sulfate]containing 10 % of FCS were seeded in a 48-well plate so that the number of cells was 1,000 cells/well, and cultured for one day in 0.25 ml of the culture fluid in each well in an incubator containing 5 % of carbon dioxide gas in air at 37° C. Then, a 4 % aqueous glutaraldehyde solution in the same amount as a medium (0.25 ml) was added, and the culture fluid was left to stand at room temperature for 2 hours to fix the cells. After washing with water, a 0.05 % aqueous solution of methylene blue was added to stain the cells Under a microscope, the number of cells containing outgrown neurites (cells having at least one neurite with a length of at least two times as large as the long diameter of the cell) was counted visually, and the proportion of these cells in the entire cells was calculated. The well was observed over 5 or more visual fields (at least 2 % of the entire surface area of the well) continuous to the left and right from a mark put at the center of the well, and more than 200 cells was counted. One drug compound was used in 6 different concentrations at most, and three runs were conducted for each concentrations.

[2] = test system: NS-20Y (mouse neuroblastoma cells); experiment: Activity on NS-20Y cells: appearance of neurites; assay type: cell-based
Method: as §1, §2
Mouse neuroblastoma cells NS-20Y were similarly cultured in a dish coated with polyornithine, and the effects of the compounds were examined.

| Compound | Number of cells having neurites with a length at least two times the diameter of each cell/total number of cells ([1]; 0.3 mM) [%] | Number of cells having neurites with a length at least two times the diameter of each cell/total number of cells ([1]; 0.1 mM) [%] | Number of cells having neurites with a length at least two times the diameter of each cell/total number of cells ([1]; 0.03 mM) [%] | further results |
| --- | --- | --- | --- | --- |
| CCOC(=O)c1cnc(NC(C)C)nc1CN(C)C [Compound 828] | 7.3 ± 1.6 | – | – | Number of cells having neurites with a length at least two times the diameter of each cell/total number of cells ([1]; 1 mM): 6.1 ± 2.0%; Number of cells in which neurites appeared/total number of cells ([2]; 24 hours, 0.3 mM): 10/58; Number of cells in which neurites appeared/total number of cells ([2]; 24 hours, 0.5 mM): 5/59; Number of cells in which neurites appeared/total number of cells ([2]; 48 hours, 0.3 mM): 6/50; Number of cells in which neurites appeared/total number of cells ([2]; 48 hours, 0.5 mM): 5/51 |
| CNc1ccnc(N2CCCCC2)n1 [Compound 1014] | 7.6 ± 1.5 | 4.7 ± 0.7 | – | Number of cells in which neurites appeared/total number of cells ([2]; 24 hours, 0.1 mM): 3/50; Number of cells in which neurites appeared/total number of cells ([2]; 24 hours, 0.4 mM): 9/50; Number of cells in which neurites appeared/total number of cells ([2]; 48 hours, 0.4 mM): 6/50 |
| CNc1ccnc(N2CCC(c3ccccc3)CC2)n1.O=C(O)/C=C\C(=O)O [Compound 1026, 4-Methylamino-2-(4-phenylpiperidino)pyrimidine maleate] | – | 5.6 ± 2.2 | 3.5 ± 0.5 | Number of cells in which neurites appeared/total number of cells ([2]; 24 hours, 0.02 mM): 4/50; Number of cells in which neurites appeared/total number of cells ([2]; 24 hours, 0.1 mM): 31/50; Number of cells in which neurites appeared/total number of cells ([2]; 48 hours, 0.02 mM): 2/50 |
| CNc1cc(C)nc(N2CCCCC2)n1 [Compound 1086] | 8.7 ± 0.8 | 3.1 ± 1.3 | 1.9 ± 1.8 | Number of cells having neurites with a length at least two times the diameter of each cell/total number of cells ([1]; 1 mM): 17.4 ± 1.1%; Number of cells in which neurites appeared/total number of cells ([2]; 24 hours, 0.4 mM): 4/50; Number of cells in which neurites appeared/total number of cells ([2]; 48 hours, 0.02 mM): 2/50 |
| CN(C(=O)COc1ccccc1)c1ccnc(N2CCC(c3ccccc3)CC2)n1 [Compound 2286] | – | 8.4 ± 0.8 | 9.7 ± 5.4 | – |
| CN(C)C(=O)N(C)c1ccnc(N2CCC(c3ccccc3)CC2)n1 [Compound 2294] | – | 8.1 ± 1.6 | 3.7 ± 0.9 | – |
| CN1C(=O)Cc2cnc(N3CCN(C(c4ccccc4)c4ccccc4)CC3)nc21 [Compound 3128, 2-(4-diphenylmethylpiperazino)-5,6-dihydro-7-methyl-6-oxo(7H)pyrrolo2,3-d]pyrimidine hydrochloride] | 11.9 ± 4.5 | 14.2 ± 1.9 | – | – |
| CN1C(=O)Cc2cnc(N3CCN(C(c4ccccc4)c4ccc(F)cc4)CC3)nc21 (stereo not drawn) [Compound 3136] | 7.1 ± 3.0 | 20.9 ± 5.3 | 13.8 ± 4.8 | Number of cells having neurites with a length at least two times the diameter of each cell/total number of cells ([1]; 0.01 mM): 5.8 ± 0.6% |
| Cc1ccc(C(c2ccccc2)N2CCN(c3ncc4c(n3)N(C)C(=O)C4)CC2)cc1.Cc1ccc(S(=O)(=O)O)cc1 (stereo not drawn) [Compound 3152, 2-(4-(α(4-methylphenyl)benzyl)piperazino)-5,6-dihydro-7-methyl-6-oxo(7H)pyrrolo[2,3-d)pyrimidine p-toluenesulfonate] | – | 6.8 ± 4.2 | 11.4 ± 3.1 | – |
| CN1C(=O)Cc2cnc(N3CCN(C4c5ccccc5-c5ccccc54)CC3)nc21 [Compound 3200] | – | – | – | Number of cells having neurites with a length at least two times the diameter of each cell/total number of cells ([1]; 0.01 mM): 2.7 ± 0.7% |
| CN1C(=O)Cc2cnc(N3CCN(C(c4ccccc4)(c4ccccc4)c4ccccc4)CC3)nc21 [Compound 3300] | 6.1 ± 1.2 | – | – | Number of cells having neurites with a length at least two times the diameter of each cell/total number of cells ([1]; 1 mM): 7.8 ± 1.0% |
| CN1C(=O)Cc2cnc(N3CCN(S(C)(=O)=O)CC3)nc21 [Compound 3404] | 3.4 ± 1.4 | – | 3.3 ± 1.3 | – |
